# According to patent US4254109A, “1H-Benz[de]isoquinoline-2(3H)-acetic acid derivatives” (Ayerst, McKenna & Harrison Inc., priority 1979, dated 1981):
# What was measured:
# aldose reductase [1] = target: T1, aldose reductase (Bos taurus, UniProt P16116); test: in vitro aldose reductase inhibition (modified Hayman and Kinoshita procedure; enzyme from bovine lens); type: biochemical; conditions: read-out: Percent Inhibition at Different Molar Concentrations (in vitro); for inhibition at 10 µM: 10^-5 molar; for inhibition at 1 µM: 10^-6 molar; for inhibition at 0.1 µM: 10^-7 molar
# T1 construct: preparation of the enzyme from bovine lens; from tissue; host or cells: bovine lens
# Procedure: In the present case the procedure of Hayman and Kinoshita is modified in that the final chromatography step is omitted in the preparation of the enzyme from bovine lens.
# The following results were obtained when the compounds of this invention were evaluated in the above in vitro test (the results for 1,3-dioxo-1H-benz[de]isoquinoline-2(3H)-acetic acid, see U.S. Pat. No. 3,821,383 cited hereinbefore, also is included for comparative purposes): […]
# glucagon = conditions: cited from earlier work
# insulin secretion = conditions: cited from earlier work
# aldose reductase [2] = conditions: cited from earlier work
Structure (SMILES),inhibition at 10 µM (aldose reductase [1]) [%],inhibition at 1 µM (aldose reductase [1]) [%],inhibition at 0.1 µM (aldose reductase [1]) [%],secretion of excessive amounts of glucagon (glucagon),insulin secretion (insulin secretion),inhibitor of aldose reductase (aldose reductase [2])
"O=C(O)CN1C(=O)c2cccc3c(Sc4ccccc4)ccc(c23)C1=O [Example 3, 1,3-Dioxo-6-(phenylthio)-1H-benz[de]isoquinoline-2(3H)-acetic acid]",92,71,22,,,
"O=C(O)CN1C(=O)c2cccc3c(Sc4ccccc4C(=O)O)ccc(c23)C1=O [Example 4, 1,3-Dioxo-6-[(2-carboxyphenyl)thio]-1H-benz[de]isoquinoline-2(3H)-acetic acid]",91,61,17,,,
"CCCCCCCCCCSc1ccc2c3c(cccc13)C(=O)N(CC(=O)O)C2=O [Example 5, 1,3-Dioxo-6-(decylthio)-1H-benz[de]isoquinoline-2(3H)-acetic acid]",60,33,26,,,

# Second part, led by results:
inhibition at 10 µM (aldose reductase [1]) [%],inhibition at 1 µM (aldose reductase [1]) [%],inhibition at 0.1 µM (aldose reductase [1]) [%],Structure (SMILES),secretion of excessive amounts of glucagon (glucagon),insulin secretion (insulin secretion),inhibitor of aldose reductase (aldose reductase [2])
74,32,5,"O=C(O)CN1C(=O)c2cccc3cccc(c23)C1=O [1,3-Dioxo-1H-benz[de]isoquinoline-2(3H)-acetic acid, reference compound]",prevents or decreases the secretion of excessive amounts of glucagon,stimulates insulin secretion,effective inhibitor of aldose reductase
85,65,22,"O=C(O)CN1C(=O)c2cccc3c(C(=O)c4ccccc4)ccc(c23)C1=O [Example 1, 6-Benzoyl-1,3-dioxo-1H-benz[de]isoquinoline-2(3H)-acetic acid]",,,
86,42,9,"O=C(O)CN1C(=O)c2cccc3c(Cl)ccc(c23)C1=O [Example 2, 6-Chloro-1,3-dioxo-1H-benz[de]isoquinoline-2(3H)-acetic acid]",,,
